Consider nine compounds from US3991202A, “Imidazolium salts” (Janssen Pharmaceutica N.V., priority 1974, dated 1976).

Where two headings read alike, the source gives them in different places.

Holding throughout (format): cell-based
The subject of assay [1] is Escherichia coli. The experiment in a line: Antibacterial growth inhibition in phenol red dextrose broth. As to conditions: 168 h, E. coli, tested at 100, 10, 1 μg/ml, read-out: Concentration in μ g for 100% Growth Inhibition. The procedure, abridged: (§1)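 Bacteria grown in phenol red dextrose broth with imidazolium salt at 100, 10 and 1 μg/ml, inoculated with a loop from a 24 hour broth culture.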

Assay [2] concerns Erysipelothrix insidiosa. The assay is described as above. As to conditions: Erysipelothrix rhusiopathiae, 168 h; E. ins.; tested at 100, 10, 1 μg/ml; read-out: Concentration in μ g for 100% Growth Inhibition. The procedure, abridged:
as §1

Assay [3] relates to Salmonella pullorum gallinarum. The assay is described as above. Particulars: Salmonella enterica, 168 h; Sp. G.; tested at 100, 10, 1 μg/ml; read-out: Concentration in μ g for 100% Growth Inhibition. The procedure, abridged: as §1
The subject of assay [4] is Pseudomonas aeruginosa. The assay is described as above. Particulars: 168 h, Ps. aer., tested at 100, 10, 1 μg/ml, read-out: Concentration in μ g for 100% Growth Inhibition. The procedure, abridged:
as §1

In assay [5] the test system is Streptococcus pyogenes. The description is as above. As to conditions: 168 h, Strep., tested at 100, 10, 1 μg/ml, read-out: Concentration in μ g for 100% Growth Inhibition. The procedure, abridged:
as §1

Assay [6] has as its system Staphylococcus hemolyticus. Described as above. As to conditions: 168 h, Staph., tested at 100, 10, 1 μg/ml, read-out: Concentration in μ g for 100% Growth Inhibition. An outline of the steps: as §1
In assay [7] the test system is Microsporum canis. The experiment in a line: Antifungal growth inhibition in Sabouraud's liquid medium. As to conditions: Microsporum canis, 336 h, M.c., read-out: Concentrations in μg/ml for 100% Inhibition of Growth. As for the experimental part:
(§2) Tests for the control of fungal organisms were performed using Sabouraud's liquid medium (1 g. of neopeptone Difco and 2 g. of glucose Difco per 100 ml. distilled water) in test tubes, each containing 4.5 ml. of liquid medium, autoclaved at 120° C for 15 minutes. The imidazolium salts were prepared for testing by dissolving in 50% ethanol to a concentration of 20 mg./ml. and thereafter diluting with sterile distilled water to obtain a concentration of 10 mg./ml. Successive decimal dilutions were then made with sterile distilled water to prepare a series of test solutions. In carrying out the test, 0.5 ml. of one of the test solutions is added to 4.5 ml. of Sabouraud's liquid medium to obtain a test medium. In this manner, from appropriate test solution, test media containing 100 μg, 10 μg and 1 μg of imidazolium salt per milliliter of medium were obtained.
(§3) Control tubes were prepared by adding 0.5 ml. of sterile distilled water to 4.5 ml. of medium. Ethanol was also added to simulate the amount which would be present in the test media. Filamentous fungi were incubated at 25° C for two to three weeks. A square block of side 2 mm. was excised and inoculated into the liquid medium. A 3-day old culture on Sabouraud's liquid medium was used for yeasts. The inoculum was 0.05 ml. per tube. All cultures were incubated at 25° C for 14 days.

Assay [8] has as its system Cryptococcus neoformans. Described as above. Particulars: Cryptococcus neoformans, 336 h; Cr.n.; tested at 100, 10, 1 μg/ml; read-out: Concentrations in μg/ml for 100% Inhibition of Growth. As for the experimental part: as §2, §3
Assay [9] has as its system Ctenomyces mentagrophytes. The assay is described as above. As to conditions: Trichophyton mentagrophytes, 336 h; Ct.m.; tested at 100, 10, 1 μg/ml; read-out: Concentrations in μg/ml for 100% Inhibition of Growth. As for the experimental part:
as §2, §3

In assay [10] the test system is Trichophyton rubrum. The assay is described as above. As to conditions: Trichophyton rubrum, 336 h; Tr.r.; tested at 100, 10, 1 μg/ml; read-out: Concentrations in μg/ml for 100% Inhibition of Growth. As for the experimental part:
as §2, §3

With `Cc1ccc(OCC[n+]2ccn(CC(OCc3ccc(Cl)cc3Cl)c3ccc(Cl)cc3Cl)c2)cc1` (stereo not drawn) [(CH2)2OC6H4pCH3, 1-[2,4-dichloro-β-(2,4-dichlorobenzyloxy)phenethyl]-3-[2-(p-tolyoxy)ethyl]imidazolium bromide], the MIC was found to be 10 µg/mL in [1]; 1 µg/mL in assay [2]; 10 µg/mL in assay [3]; 100 µg/mL in assay [4]; 1 µg/mL in assay [5]; 1 µg/mL in [6]. Besides, the MIC was found to be 10 µg/mL in assay [7] (tested at 100, 10, 1 μg/ml); 10 µg/mL in assay [8]; 10 µg/mL in assay [9]; 1 µg/mL in assay [10].

On to `Cc1ccccc1NC(=O)C[n+]1ccn(CC(OCc2ccc(Cl)cc2Cl)c2ccc(Cl)cc2Cl)c1` (stereo not drawn) [CH2CONHC6H4oCH3, 1-[2,4-Dichloro-β-(2,4-dichlorobenzyloxy)phenethyl]-3-(N-o-tolylcarbamoylmethyl)imidazolium chloride], for which the MIC was found to be 10 µg/mL in assay [1]; 1 µg/mL in [2]; 10 µg/mL in [3]; 100 µg/mL in assay [4]; 1 µg/mL in assay [5]; 1 µg/mL in [6]. The MIC in assay [7] (tested at 100, 10, 1 μg/ml) amounted to 10 µg/mL; in assay [8] it was 1 µg/mL; in assay [9] it was 1 µg/mL; in assay [10], 1 µg/mL.

Take `OC(C[n+]1ccn(CC(OCc2ccc(Cl)cc2Cl)c2ccc(Cl)cc2Cl)c1)c1ccc(Cl)cc1Cl.[Cl-]` (stereo not drawn) [CH2CHOHC6H32,4(Cl)2, 1-[2,4-dichloro-β-(2,4-dichlorobenzyloxy)phenethyl]-3-(2,4dichloro-β-hydroxyphenethyl)imidazolium chloride]: the MIC in assay [1] is 10 µg/mL; in assay [2], 1 µg/mL; in [3] it was 10 µg/mL; in assay [4], 100 µg/mL; in assay [5] it was 1 µg/mL; in assay [6], 1 µg/mL. Moreover, the MIC in assay [7] (tested at 100, 10, 1 μg/ml) was found to be 1 µg/mL; in assay [8], 10 µg/mL; in assay [9], 1 µg/mL; in assay [10] it was 1 µg/mL.

Consider `O=C(C[n+]1ccn(CC(OCc2ccc(Cl)cc2)c2ccc(Cl)cc2)c1)Nc1ccc(F)cc1` (stereo not drawn) [pClC6H4/CH2C6H4pCl/CH2CONHC6H4pF, 1-[p-Chloro-β-(p-chlorobenzyloxy)phenethyl]-3-[N-(p-fluorophenyl)carbamoylmethyl]imidazolium chloride], for which the MIC in assay [1] was 100 µg/mL; in [2] it was 10 µg/mL; in assay [3], 10 µg/mL; in [4], 100 µg/mL; in [5] it was 1 µg/mL; in [6], 10 µg/mL. The MIC was over 100 µg/mL in assay [7] (growth observed at 100 μg/ml), 100 µg/mL in assay [8], 1 µg/mL in assay [9] and 10 µg/mL in [10].

For the compound `O=C(C[n+]1ccn(CC(OCc2ccc(Cl)cc2Cl)c2ccc(Cl)cc2Cl)c1)c1ccc(F)cc1.[Cl-]` (stereo not drawn) [CH2COC6H4pF, 1-[2,4-dichloro-β-(2,4-dichlorobenzyloxy)phenethyl]-3-(p-fluorobenzoylmethyl)-imidazolium chloride], the MIC in assay [1] was determined as 10 µg/mL; in assay [2], 1 µg/mL; in assay [3], 10 µg/mL; in assay [4], 100 µg/mL; in assay [5] it was 1 µg/mL; in assay [6], 1 µg/mL. Besides, the MIC in assay [7] (tested at 100, 10, 1 μg/ml) is 1 µg/mL; in assay [8], 10 µg/mL; in assay [9], 1 µg/mL; in [10] it was 1 µg/mL.

`O=C(C[n+]1ccn(CC(OCc2ccc(Cl)cc2Cl)c2ccc(Cl)cc2Cl)c1)Nc1ccc(Cl)cc1Cl` (stereo not drawn) [CH2CONHC6H32,4(Cl)2, 1-[2,4-dichloro-β-(2,4-dichlorobenzyloxy)phenethyl]-3-[N-(2,4-dichlorophenyl)carbamoylmethyl]imidazolium chloride hydrate]: the MIC is 10 µg/mL in assay [1]; 1 µg/mL in assay [2]; 10 µg/mL in assay [3]; 100 µg/mL in assay [4]; 1 µg/mL in assay [5]; 1 µg/mL in [6]. Further, the MIC in assay [7] (tested at 100, 10, 1 μg/ml) came out at 10 µg/mL; in assay [8], 1 µg/mL; in assay [9], 10 µg/mL; in [10], 10 µg/mL.

Take `Cc1ccc(C[n+]2ccn(CC(OCc3ccc(Cl)cc3Cl)c3ccc(Cl)cc3Cl)c2)cc1C.[Cl-]` (stereo not drawn) [CH2C6H33,4(CH3)2, 1-[2,4-Dichloro-β-(2,4-dichlorobenzyloxy)phenethyl]-3-(3,4-dimethylbenzyl)imidazolium chloride]: the MIC was 10 µg/mL in assay [1]; 1 µg/mL in assay [2]; 10 µg/mL in assay [3]; 100 µg/mL in assay [4]; 1 µg/mL in assay [5]; 1 µg/mL in [6]. The MIC amounted to 10 µg/mL in [7] (tested at 100, 10, 1 μg/ml); 10 µg/mL in assay [8]; 1 µg/mL in assay [9]; 1 µg/mL in [10].

`Clc1ccc(COC(Cn2cc[n+](CCOc3ccccc3)c2)c2ccc(Cl)cc2Cl)c(Cl)c1.[Br-]` (stereo not drawn) [(CH2)2OC6H5, 1-[2,4-dichloro-β-(2,4-dichlorobenzyloxy)phenethyl]-3-(2-phenoxyethyl)imidazolium bromide]: the MIC worked out at 10 µg/mL in assay [1]; 1 µg/mL in [2]; 10 µg/mL in assay [3]; 100 µg/mL in [4]; 1 µg/mL in assay [5]; 1 µg/mL in [6]. In addition, the MIC in assay [7] (tested at 100, 10, 1 μg/ml) is 10 µg/mL; in [8], 10 µg/mL; in assay [9], 10 µg/mL; in assay [10], 1 µg/mL.

Turning to `Fc1ccc(C(c2ccc(Cl)cc2)[n+]2ccn(CC(OCc3ccc(Cl)cc3Cl)c3ccc(Cl)cc3Cl)c2)cc1` (centres unmarked) [drawing 69], the MIC in [1] was 100 µg/mL; in assay [2], 1 µg/mL; in assay [3], 100 µg/mL; in [4], 100 µg/mL; in [5], 1 µg/mL; in [6], 1 µg/mL.
